# Measurements published in US11944622B2 (Annapurna Bio, Inc., priority 2018, dated 2024).
# Target: T1, APJ Receptor (Homo sapiens, UniProt P35414)
# T1 sequence (P35414 1-380): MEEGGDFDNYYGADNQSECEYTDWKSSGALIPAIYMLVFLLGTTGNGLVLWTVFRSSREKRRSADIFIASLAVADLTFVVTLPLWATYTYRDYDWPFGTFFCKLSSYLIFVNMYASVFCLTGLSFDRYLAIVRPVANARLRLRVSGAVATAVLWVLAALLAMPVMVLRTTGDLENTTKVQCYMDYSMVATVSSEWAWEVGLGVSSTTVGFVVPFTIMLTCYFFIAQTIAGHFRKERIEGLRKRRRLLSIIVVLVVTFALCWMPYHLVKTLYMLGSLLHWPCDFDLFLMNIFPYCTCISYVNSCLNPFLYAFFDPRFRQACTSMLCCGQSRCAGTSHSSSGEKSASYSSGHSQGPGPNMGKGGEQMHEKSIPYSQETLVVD
# Experiment: APJ cAMP assay (DiscoverX enzyme fragment complementation; inhibition of forskolin-stimulated cAMP)
# Format: cell-based
# Conditions: CHO-K1 cell line stably expressing the APJ Receptor; EC80 forskolin; 30 minutes at 37° C.; read-out: Potency Range (APJ cAMP EC50)
# Summary of the method: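 CHO-K1 cells stably expressing APJ incubated with compound plus EC80 forskolin for 30 min at 37° C. cAMP detected by β-galactosidase enzyme fragment complementation with chemiluminescent read-out; % activity calculated relative to vehicle and maximal controls.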
row,EC50 [nM],Compound
1,1 to 100,"CCOc1cccc(-c2nc3ncc(NS(=O)(=O)C4CCC4)nc3n2-c2c(OC)cccc2OC)n1 [Example 31, N-(1-(2,6-dimethoxyphenyl)-2-(6-ethoxypyridin-2-yl)-1H-imidazo[4,5-b]pyrazin-6-yl)cyclobutanesulfonamide]"
2,100 to 10000,"COc1cccc(OC)c1-n1c(-c2ccc(C)o2)nc2nnc(NS(C)(=O)=O)cc21 [Example 130, N-(7-(2,6-Dimethoxyphenyl)-8-(5-methylfuran-2-yl)-7H-imidazo[4,5-c]pyridazinyl)methanesulfonamide]"
3,1 to 100,"CCOc1cccc(-c2nc3ncc(NS(=O)(=O)N4CCNCC4)nc3n2-c2c(OC)cccc2OC)n1 [Example 74, N-(1-(2,6-Dimethoxyphenyl)-2-(6-ethoxypyridin-2-yl)-1H-imidazo[4,5-b]pyrazin-6-yl)piperazine-1-sulfonamide]"
4,100 to 10000,"CCOc1cccc(-c2nc3ncc(Br)nc3n2-c2c(OC)cccc2OC)n1 [Example 1, 6-bromo-1-(2,6-dimethoxyphenyl)-2-(6-ethoxypyridin-2-yl)-1H-imidazo[4,5-b]pyrazine]"
5,< 1,"CCOc1cccc(-c2nc3ncc(NS(=O)(=O)N4CCOCC4)nc3n2-c2c(OC)cccc2OC)n1 [Example 37, N-(1-(2,6-dimethoxyphenyl)-2-(6-ethoxypyridin-2-yl)-1H-imidazo[4,5-b]pyrazin-6-yl)morpholine-4-sulfonamide]"
6,< 1,"CCOc1cccc(-c2nc3ncc(NS(=O)(=O)Cc4ncc(F)cn4)nc3n2-c2c(OC)cccc2OC)n1 [Example 79, N-(1-(2,6-dimethoxyphenyl)-2-(6-ethoxypyridin-2-yl)-1H-imidazo[4,5-b]pyrazin-6-yl)-1-(5-fluoropyrimidin-2-yl)methanesulfonamide]"
7,< 1,"CCOc1cccc(-c2nc3ncc(NS(=O)(=O)N(C)C4CC4)nc3n2-c2c(OC)cccc2OC)n1 [Example 77, N-(1-(2,6-dimethoxyphenyl)-2-(6-ethoxypyridin-2-yl)-1H-imidazo[4,5-b]pyrazin-6-yl)-N′-methyl-N′-cyclopropylsulfamide]"
8,< 1,"CCOc1cccc(-c2nc3nnc(NS(=O)(=O)CC4CC(C)(O)C4)cc3n2-c2c(OC)cccc2OC)n1 (stereo not shown) [Example 128, N-(5-(2,6-Dimethoxyphenyl)-6-(6-ethoxypyridin-2-yl)-5H-imidazo[4,5-c]pyridazin-3-yl)-1-(3-hydroxy-3-methylcyclobutyl)methanesulfonamide]"
9,100 to 10000,"CCOc1cccc(-c2cc3ncc(NS(C)(=O)=O)nc3n2-c2c(OC)cccc2OC)n1 [Example 19, N-(5-(2,6-dimethoxyphenyl)-6-(6-ethoxypyridin-2-yl)-5H-pyrrolo[2,3-b]pyrazin-3-yl)methanesulfonamide]"
10,1 to 100,"CCOc1cccc(-c2nc3ncc(NS(=O)(=O)c4cccnc4)nc3n2-c2c(OC)cccc2OC)n1 [Example 24, N-(1-(2,6-dimethoxyphenyl)-2-(6-ethoxypyridin-2-yl)-1H-imidazo[4,5-b]pyrazin-6-yl)pyridine-3-sulfonamide]"
11,1 to 100,"CCOc1cccc(-c2nc3nc(CO)c(NS(C)(=O)=O)nc3n2-c2c(OC)cccc2OC)n1 [Example 140, N-(1-(2,6-Dimethoxyphenyl)-2-(6-ethoxypyridin-2-yl)-5-(hydroxymethyl)-1H-imidazo[4,5-b]pyrazin-6-yl)methanesulfonamide]"
12,< 1,CCOc1cccc(-c2nc3nc(CC4CCC4)c(NS(C)(=O)=O)nc3n2-c2c(OC)cccc2OC)n1 [Example 88]
13,< 1,"CCOc1cccc(-c2nc3ncc(NS(=O)(=O)Cc4ncc(C)cn4)nc3n2-c2c(OC)cccc2OC)n1 [Example 80, N-(1-(2,6-dimethoxyphenyl)-2-(6-ethoxypyridin-2-yl)-1H-imidazo[4,5-b]pyrazin-6-yl)-1-(5-methylpyrimidin-2-yl)methanesulfonamide]"
14,1 to 100,"CCOc1cccc(-c2nc3ncc(NS(=O)(=O)[C@H]4C[C@H](O)C4)nc3n2-c2c(OC)cccc2OC)n1 [Example 34, trans-N-(1-(2,6-dimethoxyphenyl)-2-(6-ethoxypyridin-2-yl)-1H-imidazo[4,5-b]pyrazin-6-yl)-3-hydroxycyclobutane-1-sulfonamide]"
15,100 to 10000,"CCOCc1nc2ncc(NS(=O)(=O)c3ccccc3)nc2n1-c1c(OC)cccc1OC [Example 57, N-(1-(2,6-dimethoxyphenyl)-2-(ethoxymethyl)-1H-imidazo[4,5-b]pyrazin-6-yl)benzenesulfonamide]"
16,< 1,"CCOc1cccc(-c2nc3ncc(NS(=O)(=O)[C@H]4CC[C@H](O)CC4)nc3n2-c2c(OC)cccc2OC)n1 [Example 39, trans-N-(1-(2,6-dimethoxyphenyl)-2-(6-ethoxypyridin-2-yl)-1H-imidazo[4,5-b]pyrazin-6-yl)-4-hydroxycyclohexane-1-sulfonamide]"

row,EC50 [nM],Compound
1,1 to 100,"CCOc1cccc(-c2nc3ncc(NS(C)(=O)=O)nc3n2-c2c(OC)cccc2C(F)(F)F)n1 [Example 48, N-(2-(6-ethoxypyridin-2-yl)-1-(2-methoxy-6-(trifluoromethyl)phenyl)-1H-imidazo[4,5-b]pyrazin-6-yl)methanesulfonamide]"
2,100 to 10000,"CCOc1cccc(-c2nc3ncc(O)nc3n2-c2c(OC)cccc2C(F)(F)F)n1 [Example 47, 2-(6-ethoxypyridin-2-yl)-1-(2-methoxy-6-(trifluoromethyl)phenyl)-1H-imidazo[4,5-b]pyrazin-6-ol]"
3,< 1,"CCOc1cccc(-c2nc3ncc(NS(=O)(=O)c4ccccn4)nc3n2-c2c(OC)cccc2OC)n1 [Example 23, N-(1-(2,6-dimethoxyphenyl)-2-(6-ethoxypyridin-2-yl)-1H-imidazo[4,5-b]pyrazin-6-yl)pyridine-2-sulfonamide]"
4,1 to 100,"CCOc1cccc(-c2nc3nc(O)c(NS(C)(=O)=O)nc3n2-c2c(OC)cccc2OC)n1 [Example 135, N-(1-(2,6-Dimethoxyphenyl)-2-(6-ethoxypyridin-2-yl)-5-hydroxy-1H-imidazo[4,5-b]pyrazin-6-yl)methanesulfonamide]"
5,< 1,"CCOc1cccc(-c2nc3ncc(NS(=O)(=O)Cc4ccc(F)cn4)nc3n2-c2c(OC)cccc2OC)n1 [Example 78, N-(1-(2,6-dimethoxyphenyl)-2-(6-ethoxypyridin-2-yl)-1H-imidazo[4,5-b]pyrazin-6-yl)-1-(5-fluoropyridin-2-yl)methanesulfonamide]"
6,1 to 100,"CCOc1cccc(-c2nc3nc(NS(=O)(=O)CC4(O)CC4)cnc3n2-c2c(OC)cccc2OC)n1 [Example 62, N-(1-(2,6-dimethoxyphenyl)-2-(6-ethoxypyridin-2-yl)-1H-imidazo[4,5-b]pyrazin-5-yl)-1-(1-hydroxycyclopropyl)methanesulfonamide]"
7,100 to 10000,"COc1cccc(OC)c1-n1c(-c2cncc(C)c2)nc2ncc(NS(C)(=O)=O)nc21 [Example 132, N-(1-(2,6-dimethoxyphenyl)-2-(5-methylpyridin-3-yl)-1H-imidazo[4,5-b]pyrazin-6-yl)methanesulfonamide]"
8,1 to 100,"CCOc1cccc(-c2nc3ncc(NS(=O)(=O)Cc4cnccn4)nc3n2-c2c(OC)cccc2OC)n1 [Example 69, N-(1-(2,6-dimethoxyphenyl)-2-(6-ethoxypyridin-2-yl)-1H-imidazo[4,5-b]pyrazin-6-yl)-1-(pyrazin-2-yl)methanesulfonamide]"
9,1 to 100,"COc1cccc(OC)c1-n1c(-c2cccc(OCC(F)(F)F)n2)nc2ncc(NS(C)(=O)=O)nc21 [Example 55, N-(1-(2,6-dimethoxyphenyl)-2-(6-(trifluoroethoxy)pyridin-2-yl)-1H-imidazo[4,5-b]pyrazin-6-yl)methanesulfonamide]"
10,1 to 100,"CCOc1cccc(-c2nc3nnc(NS(=O)(=O)Cc4ncc(O)cn4)cc3n2-c2c(OC)cccc2OC)n1 [Example 129, N-(7-(2,6-Dimethoxyphenyl)-8-(6-ethoxypyridin-2-yl)-7H-imidazo[4,5-c]pyridazinyl)-1-(5-hydroxypyrimidin-2-yl)methanesulfonamide]"
11,1 to 100,"CCOc1cccc(-c2nc3nc(Cl)c(NS(=O)(=O)N4CCC(O)CC4)nc3n2-c2c(OC)cccc2OC)n1 [Example 116, N-(5-Chloro-1-(2,6-dimethoxyphenyl)-2-(6-ethoxypyridin-2-yl)-1H-imidazo[4,5-b]pyrazin-6-yl)-4-hydroxypiperidine-1-sulfonamide]"
12,1 to 100,"CCOc1cccc(-c2nc3ncc(NS(=O)(=O)Cc4cncnc4)nc3n2-c2c(OC)cccc2OC)n1 [Example 35, N-(1-(2,6-dimethoxyphenyl)-2-(6-ethoxypyridin-2-yl)-1H-imidazo[4,5-b]pyrazin-6-yl)-1-(pyrimidin-5-yl)methanesulfonamide]"
13,1 to 100,"CCOc1cccc(-c2nc3nc(Cl)c(NS(C)(=O)=O)nc3n2-c2c(OC)cncc2OC)n1 [Example 117, N-(5-Chloro-1-(3,5-dimethoxypyridin-4-yl)-2-(6-ethoxypyridin-2-yl)-1H-imidazo[4,5-b]pyrazin-6-yl)methanesulfonamide]"
14,100 to 10000,"CCOc1cccc(-c2nc3ncc(N(C)C)nc3n2-c2c(OC)cccc2OC)n1 [Example 12, 1-(2,6-dimethoxyphenyl)-2-(6-ethoxypyridin-2-yl)-N,N-dimethyl-1H-imidazo[4,5-b]pyrazin-6-amine]"
15,< 1,"CCOc1cccc(-c2nc3nc(NS(=O)(=O)N4CCOCC4)cnc3n2-c2c(OC)cccc2OC)n1 [Example 90, N-(1-(2,6-Dimethoxyphenyl)-2-(6-ethoxypyridin-2-yl)-1H-imidazo[4,5-b]pyrazin-5-yl)morpholine-4-sulfonamide]"
